Laboratory results published in patent US4975538A, “Antibiotic sulfonylaminocarbonyl activated beta-lactams” (The Upjohn Company, priority 1989, dated 1990).
Converted amounts (≈) assume the structure as drawn.

What was measured:
Experiment in all cases: Minimum Inhibitory Concentration (MIC), agar dilution in Mueller Hinton Agar
Type in all cases: cell-based
Streptococcus Pyogenes = conditions: 20 h, culture number 152
Method: (§1) The compounds of this invention and their respective pharmaceutically acceptable salts have antibiotic activity against a variety of gram-negative bacteria including Escherichia coli, Klebsiella pneumoniae, and Pseudomonas aeruginosa. The compounds are useful for treating bacterial infections in animals, including and most preferably humans. Compounds of the invention are tested for in vitro antimicrobial activity using standard testing procedures such as the determination of minimum inhibitory concentration (MIC) by methods described in "Methods for Dilution Antimicrobial Susceptibility Tests for Bacteria That Grow Aerobically" (M7-A) Published December 1985 by the National Committee for Clinical Laboratory Standards, 771 East Lancaster Avenue, Villanova, Pa. 19084. Briefly, MIC values are determined in unsupplemented Mueller Hinton Agar (MHA). The compounds tested are diluted serially into molten MHA at 47° C. The agar is poured into petri dishes and allowed to harden. The various bacteria used for testing are grown overnight on MHA at 35° C. and transferred to Tryptiease Soy Broth (TSB) until a turbidity of 0.5 McFarland standard is obtained. The bacteria are diluted one to twenty in TSB and inoculated on the plates (1 μl using a Steers replicator).

Escherichia Coli = conditions: 20 h
Method: as §1

Streptococcus Pneumoniae = conditions: 20 h, culture number 41
Method: as §1

Proteus Vulgaris = conditions: 20 h, culture number 9679
Method: as §1

Staphylococcus Aureus = conditions: 20 h
Method: as §1

Citrobacter Freundli = conditions: 20 h, culture number 3507
Method: as §1

Streptococcus Faecalis = conditions: Enterococcus faecalis, 20 h; culture number 694
Method: as §1

Enterobacter Cloacae = conditions: 20 h
Method: as §1

Pseudomonas Aeruginosa = conditions: 20 h
Method: as §1

Klebsiella Pneumoniae = conditions: 20 h, culture number 58
Method: as §1

Serratia Marcescens = conditions: 20 h
Method: as §1

Klebsiella Oxytoca = conditions: 20 h
Method: as §1

MIC (Streptococcus Pyogenes) [µg/mL]	MIC (Escherichia Coli; culture number 9379) [µg/mL]	MIC (Escherichia Coli; culture number 9380) [µg/mL]	MIC (Escherichia Coli; culture number 9451) [µg/mL]	MIC (Streptococcus Pneumoniae) [µg/mL]	MIC (Proteus Vulgaris) [µg/mL]	MIC (Staphylococcus Aureus; culture number 3665) [µg/mL]	MIC (Staphylococcus Aureus; culture number 6685) [µg/mL]	MIC (Staphylococcus Aureus; culture number 9218) [µg/mL]	MIC (Citrobacter Freundli) [µg/mL]	MIC (Streptococcus Faecalis) [µg/mL]	MIC (Enterobacter Cloacae; culture number 9381) [µg/mL]	MIC (Enterobacter Cloacae; culture number 9382) [µg/mL]	MIC (Pseudomonas Aeruginosa; culture number 231) [µg/mL]	MIC (Pseudomonas Aeruginosa; culture number 9191) [µg/mL]	MIC (Klebsiella Pneumoniae) [µg/mL]	MIC (Serratia Marcescens; culture number 6888) [µg/mL]	MIC (Klebsiella Oxytoca; culture number 9383) [µg/mL]	MIC (Klebsiella Oxytoca; culture number 9384) [µg/mL]	MIC (Serratia Marcescens; culture number 9888) [µg/mL]	SMILES
16 (≈ 23.4 µM)	0.015 (≈ 0.0219 µM)	< 0.008	0.015 (≈ 0.0219 µM)	> 64	0.25 (≈ 0.366 µM)	> 64	> 64	> 64	0.25 (≈ 0.366 µM)	> 64	64 (≈ 93.6 µM)	1 (≈ 1.46 µM)	0.5 (≈ 0.731 µM)	0.5 (≈ 0.731 µM)	1 (≈ 1.46 µM)	0.125 (≈ 0.183 µM)	0.5 (≈ 0.731 µM)	0.125 (≈ 0.183 µM)		CC(C)(O/N=C(\C(=O)N[C@H]1CN(C(=O)NS(=O)(=O)N2CCN(C(=O)c3cc(=O)c(O)c[nH]3)CC2=O)C1=O)c1csc(N)n1)C(=O)O [Compound E17]
16 (≈ 23.4 µM)	< 0.008	< 0.008	< 0.008	> 64	0.06 (≈ 0.0876 µM)	> 64	> 64	> 64	0.06 (≈ 0.0876 µM)	> 64	16 (≈ 23.4 µM)	1 (≈ 1.46 µM)	0.25 (≈ 0.365 µM)	0.125 (≈ 0.183 µM)	0.5 (≈ 0.73 µM)	0.06 (≈ 0.0876 µM)	0.125 (≈ 0.183 µM)	0.03 (≈ 0.0438 µM)		CC(C)(O/N=C(\C(=O)N[C@H]1CN(C(=O)NS(=O)(=O)N2CCN(C(=O)c3cc(=O)c(O)c[nH]3)NC2=O)C1=O)c1csc(N)n1)C(=O)O [Compound E18, Propanoic acid, 2-[[[1-(2-amino-4-thiazolyl)-2-[[1-[[[[1-[(1,4-dihydro-5-hydroxy-4-oxo-2-pyridinyl)carbonyl]tetrahydro-3-oxo-1,2,4-triazin-4(1H)-yl]sulfonyl]amino]carbonyl]-2-oxo-3-azetidinyl]amino]-2-oxoethylidene]amino]oxy]-2-methyl-[S-(Z)]-]
64 (≈ 99.8 µM)	0.25 (≈ 0.39 µM)	0.06 (≈ 0.0935 µM)	0.125 (≈ 0.195 µM)	> 128	4 (≈ 6.23 µM)	> 128	> 128	> 128	2 (≈ 3.12 µM)	> 128	128 (≈ 200 µM)	16 (≈ 24.9 µM)	8 (≈ 12.5 µM)	8 (≈ 12.5 µM)	8 (≈ 12.5 µM)	1 (≈ 1.56 µM)	64 (≈ 99.8 µM)	0.5 (≈ 0.779 µM)		Nc1nc(/C(=N/OCC(=O)O)C(=O)N[C@H]2CN(C(=O)NS(=O)(=O)N3CCN(C(=O)c4cc(=O)c(O)c[nH]4)CC3)C2=O)cs1 [Compound E19, Acetic acid, 2-[[[1-(2-amino-4-thiazolyl)-2-[[1-[[[[4-[(1,4-dihydro-5-hydroxy-4-oxo-2-pyridinyl)carbonyl]-1-piperazinyl]sulfonyl]amino]carbonyl]-2-oxo-3-azetidinyl]amino]-2-oxoethylidene]amino]oxy]-, [S-(Z)]-]
64 (≈ 88.3 µM)	0.06 (≈ 0.0828 µM)	0.03 (≈ 0.0414 µM)	0.125 (≈ 0.172 µM)	> 64	2 (≈ 2.76 µM)	> 64	> 64	> 64	0.5 (≈ 0.69 µM)	> 64	64 (≈ 88.3 µM)	4 (≈ 5.52 µM)	16 (≈ 22.1 µM)	16 (≈ 22.1 µM)	2 (≈ 2.76 µM)	0.5 (≈ 0.69 µM)	1 (≈ 1.38 µM)	0.5 (≈ 0.69 µM)		CC(C)(O/N=C(\C(=O)N[C@H]1CN(C(=O)NS(=O)(=O)N2CCN(NC(=O)c3cc(=O)c(O)cn3C3CC3)C2=O)C1=O)c1csc(N)n1)C(=O)O [Compound E42, Propanoic acid, 2-[[[1-(2-amino-4-thiazolyl)-2-[[1-[[[[3-[[(1-cyclopropyl-1,4-dihydro-5-hydroxy-4-oxo-2-pyridinyl)carbonyl]amino]-2-oxo-1-imidazolidinyl]sulfonyl]amino]carbonyl]-2-oxo-3-azetidinyl]amino]-2-oxoethylidene]amino]oxy]-2-methyl-, [S-(Z)]-]

More lines, now with the values behind:

SMILES	MIC (Streptococcus Pyogenes) [µg/mL]	MIC (Escherichia Coli; culture number 9379) [µg/mL]	MIC (Escherichia Coli; culture number 9380) [µg/mL]	MIC (Escherichia Coli; culture number 9451) [µg/mL]	MIC (Streptococcus Pneumoniae) [µg/mL]	MIC (Proteus Vulgaris) [µg/mL]	MIC (Staphylococcus Aureus; culture number 3665) [µg/mL]	MIC (Staphylococcus Aureus; culture number 6685) [µg/mL]	MIC (Staphylococcus Aureus; culture number 9218) [µg/mL]	MIC (Citrobacter Freundli) [µg/mL]	MIC (Streptococcus Faecalis) [µg/mL]	MIC (Enterobacter Cloacae; culture number 9381) [µg/mL]	MIC (Enterobacter Cloacae; culture number 9382) [µg/mL]	MIC (Pseudomonas Aeruginosa; culture number 231) [µg/mL]	MIC (Pseudomonas Aeruginosa; culture number 9191) [µg/mL]	MIC (Klebsiella Pneumoniae) [µg/mL]	MIC (Serratia Marcescens; culture number 6888) [µg/mL]	MIC (Klebsiella Oxytoca; culture number 9383) [µg/mL]	MIC (Klebsiella Oxytoca; culture number 9384) [µg/mL]	MIC (Serratia Marcescens; culture number 9888) [µg/mL]
CC(C)(O/N=C(\C(=O)N[C@H]1CN(C(=O)NS(=O)(=O)n2nc(-c3cc(=O)c(O)c[nH]3)[nH]c2=O)C1=O)c1csc(N)n1)C(=O)O [E23 (a), propanoic acid, 2-[[[1-(2-amino-4-thiazolyl)-2-[[1-[[[[3-(1,4-dihydro-5-hydroxy-4-oxo-2-pyridinyl)-2,5-dihydro-5-oxo-1H-1,2,4-triazol-1-yl]sulfonyl]amino]carbonyl]-2-oxo-3-azetidinyl]amino]-2-oxoethylidene]amino]oxy]-2-methyl-, [S-(Z)]-]	16 (≈ 25 µM)	< 0.008	< 0.008	< 0.008	> 64	0.03 (≈ 0.0468 µM)	> 64	> 64	> 64	0.03 (≈ 0.0468 µM)	> 64	4 (≈ 6.24 µM)	0.5 (≈ 0.781 µM)	0.5 (≈ 0.781 µM)	0.5 (≈ 0.781 µM)	0.25 (≈ 0.39 µM)	0.015 (≈ 0.0234 µM)	0.03 (≈ 0.0468 µM)	0.03 (≈ 0.0468 µM)	
Cn1c(-c2cc(=O)c(O)c[nH]2)nn(S(=O)(=O)NC(=O)N2C[C@H](NC(=O)/C(=N\OC(C)(C)C(=O)O)c3csc(N)n3)C2=O)c1=O [E23 (b)]	16 (≈ 24.4 µM)	< 0.008	< 0.008	< 0.008	> 64	0.03 (≈ 0.0458 µM)	> 64	> 64	> 64	0.03 (≈ 0.0458 µM)	> 64	4 (≈ 6.11 µM)	0.5 (≈ 0.764 µM)	0.125 (≈ 0.191 µM)	0.25 (≈ 0.382 µM)	0.25 (≈ 0.382 µM)	0.015 (≈ 0.0229 µM)	0.03 (≈ 0.0458 µM)	0.03 (≈ 0.0458 µM)	
Nc1nc(C(=NOCC(=O)O)C(=O)NC2CN(C(=O)NS(=O)(=O)N3CC(CNC(=O)c4cc(=O)c(O)c[nH]4)OC3=O)C2=O)cs1 (stereo not drawn) [E27 (a), [[[1-(2-amino-4-thiazolyl)-2-[[1-[[[[4-[[(1,4-dihydro-5-hydroxy-4-oxo-2-pyridinyl)carbonyl]amino]-[2-oxo-5-oxazolydinyl]methyl]sulfonyl]amino]carbonyl]-2-oxo-3-azetidinyl]amino]-2-oxoethylidene]amino]oxy] acetic acid]	16 (≈ 23.8 µM)	< 0.06	< 0.06	< 0.06		0.5 (≈ 0.745 µM)				0.25 (≈ 0.372 µM)		128 (≈ 191 µM)	2 (≈ 2.98 µM)	4 (≈ 5.96 µM)	64 (≈ 95.3 µM)	0.5 (≈ 0.745 µM)		4 (≈ 5.96 µM)	0.25 (≈ 0.372 µM)	0.5 (≈ 0.745 µM)
CC(C)(ON=C(C(=O)NC1CN(C(=O)NS(=O)(=O)N2CC(CNC(=O)c3cc(=O)c(O)c[nH]3)OC2=O)C1=O)c1csc(N)n1)C(=O)O (stereo not drawn) [E27 (b)]	64 (≈ 91.5 µM)	0.125 (≈ 0.179 µM)	0.03 (≈ 0.0429 µM)	0.06 (≈ 0.0858 µM)		0.5 (≈ 0.715 µM)				0.5 (≈ 0.715 µM)		128 (≈ 183 µM)	8 (≈ 11.4 µM)	4 (≈ 5.72 µM)	8 (≈ 11.4 µM)	2 (≈ 2.86 µM)		4 (≈ 5.72 µM)	0.25 (≈ 0.357 µM)	0.5 (≈ 0.715 µM)
Cn1cc(O)c(=O)cc1C(=O)NN1CCN(S(=O)(=O)NC(=O)N2C[C@H](NC(=O)/C(=N\OC(C)(C)C(=O)O)c3csc(N)n3)C2=O)C1=O [E42 (a)]	128 (≈ 183 µM)	0.06 (≈ 0.0859 µM)	< 0.015	0.06 (≈ 0.0859 µM)	> 128	0.5 (≈ 0.716 µM)	> 128	> 128	> 128	0.5 (≈ 0.716 µM)	> 128	64 (≈ 91.6 µM)	4 (≈ 5.73 µM)	2 (≈ 2.86 µM)	2 (≈ 2.86 µM)	2 (≈ 2.86 µM)	0.25 (≈ 0.358 µM)	1 (≈ 1.43 µM)	0.5 (≈ 0.716 µM)	
CCCCn1cc(O)c(=O)cc1C(=O)NN1CCN(S(=O)(=O)NC(=O)N2C[C@H](NC(=O)/C(=N\OC(C)(C)C(=O)O)c3csc(N)n3)C2=O)C1=O [E42 (b), Propanoic acid, 2-[[[1-(2-amino-4-thiazolyl)-2-[[1-[[[[3-[[(1-butyl-1,4-dihydro-5-hydroxy-4-oxo-2-pyridinyl)carbonyl]amino]-2-oxo-1-imidazolidinyl]sulfonyl]amino]carbonyl]-2-oxo-3-azetidinyl]amino]-2-oxoethylidene]amino]oxy]-2-methyl-, [S-(Z)]-]	16 (≈ 21.6 µM)	0.5 (≈ 0.675 µM)	0.25 (≈ 0.338 µM)	0.5 (≈ 0.675 µM)	> 64	0.25 (≈ 0.338 µM)	> 64	> 64	> 64	2 (≈ 2.7 µM)	> 64	> 64	1 (≈ 1.35 µM)	> 64	64 (≈ 86.4 µM)	0.5 (≈ 0.675 µM)	1 (≈ 1.35 µM)	4 (≈ 5.4 µM)	0.25 (≈ 0.338 µM)	
